Test results from US20220106296A1, “CYANOTRIAZOLE COMPOUNDS AND USES THEREOF” (Novartis AG, priority 2018, published 2022).

Columns and labels:
Type in all cases: cell-based
[1] = system: T. b. brucei Lister427 bloodstream form parasites; assay: T. b. brucei growth inhibition assay (CellTiter-Glo, 48 hours); settings: Trypanosoma brucei
Text: Bloodstream form of T. b. brucei Lister427 strain was obtained from the Genomics Institute of the Novartis Research Foundation. This strain was used for carrying out growth inhibition and kill kinetics assays. T. b. gambiense STIB930 and T. b. rhodesiense STIB900 were obtained from Swiss TPH, were used for carrying out the growth inhibition assays.
Bloodstream form T. b. brucei Lister 427 parasites were continuously passaged in HMI-9 medium formulated from IMDM medium (Invitrogen), 10% heat-inactivated fetal bovine serum (FBS), 10% Serum Plus medium supplement (SAFC Biosciences), 1 mM hypoxanthine (Sigma-Aldrich), 50 μM bathocuproine disulfonic acid (Sigma-Aldrich), 1.5 mM cysteine (Sigma-Aldrich), 1 mM pyruvic acid (Sigma-Aldrich), 39 μg/mL thymidine (Sigma-Aldrich), and 14 μL/L beta-mercapthoethanol (Sigma-Aldrich); all concentrations of added components refer to that in complete HMI-9 medium. The parasites were cultured in 10 mL of HMI-9 medium in T75 CELL-STAR tissue culture flasks at 37° C./5% CO2.
(§1) To determine compound growth inhibitory potency on T. b. brucei Lister427 bloodstream form parasites, 200 nL of 10-point, 3 fold serially diluted compounds in DMSO were transferred to the wells of white, solid bottom 384-well plates (Greiner Bio-One) by either Echo 555 acoustic liquid handling system or Mosquito. Then, 1×10^4 of T. b. brucei parasites in 40 μL of HMI-9 medium were added to each well, and the plates were incubated for 48 hours at 37° C. in 5% CO2 incubators. Parasite numbers in individual plate wells were determined through quantification of intracellular ATP amount. The CellTiter-Glo luminescent cell viability reagent (Promega) was added to plate wells, and ATP-dependent luminescence signal was measured on Tecan M1000 plate Reader after 30 min incubation. Luminescence values in wells with compounds were divided by the average luminescence value of the plate DMSO controls, and used for calculation of compound IC50 values.

[2] = system: intracellular T. cruzi amastigotes; assay: T. cruzi amastigote growth inhibition assay (NIH 3T3 host cells, β-galactosidase readout); settings: Trypanosoma cruzi, NIH3T3, read-out: (c) T.c.* IC50
Experimental: NIH 3T3 fibroblast cells (ATCC) were maintained in RPMI-1640 medium (Life Technologies) supplemented with 10% heat-inactivated fetal bovine serum and 100 IU penicillin/100 μg/ml streptomycin at 37° C./5% CO2. T. cruzi Tulahuen parasites constitutively expressing E. coli β-galactosidase were maintained in tissue culture as an infection in NIH 3T3 fibroblast cells. Briefly, 2×10^7 T. cruzi trypomastigotes were used to infect 6×10^5 NIH 3T3 cells growing in T75 CELLSTAR tissue culture flasks and cultured at 37° C./5% CO2 until proliferating intracellular parasites lysed host 3T3 cells and were released into the culture medium (typically 6-7 days). During the infection, the tissue culture medium was changed every two days. Number of T. cruzi trypomastigotes present in 1 ml of medium was determined using a haemocytometer.
To determine compound potency on intracellular T. cruzi amastigotes, NIH 3T3 cells were re-suspended in phenol red-free RPMI-1640 medium containing 3% heat-inactivated fetal bovine serum and 100 IU penicillin/100 μg/ml streptomycin, seeded at 1,000 cells/well (40 μl) in white, clear bottom 384-well plates (Greiner Bio-One), and incubated overnight at 37° C./5% CO2. The following day, 100 nl of each compound in DMSO were transferred to individual plate wells by Echo 555 acoustic liquid handling system. After one hour incubation, 1×10^6 of tissue culture-derived T. cruzi trypomastigotes, in 10 μl of phenol red-free RPMI-1640 medium supplemented with 3% heat-inactivated fetal bovine serum and 100 IU penicillin/100 μg/ml streptomycin were added to each well. Plates were then incubated for 6 days at 37° C./5% CO2. Intracellular T. cruzi parasites were quantified by measuring the activity of parasite-expressed β-galactosidase. Ten microliters of a chromogenic β-galactosidase substrate solution (0.6 mM chlorophenol red-β-D-galactopyranoside/0.6% NP-40 in PBS; both reagents from Calbiochem) were added to each well and incubated for 2 h at room temperature. After incubation, absorption was measured at 570 nm on SpectraMax M2 plate reader (Molecular Devices). Measured absorbance values in wells with compounds were divided by the average absorbance value of the plate DMSO controls, and used for calculation of compound EC50 values as described above.

T.b. gambinese STIB930 = assay: T.b. gambiense growth inhibition assay; settings: Trypanosoma brucei, read-out: (b) T.b.g* IC50
Experimental: as §1, with “Bloodstream form of T. b. brucei Lister427 strain was obtained from the Genomics Institute of the Novartis Research Foundation. This strain was used for carrying out growth inhibition and kill kinetics assays. T. b. gambiense STIB930 and T. b. rhodesiense STIB900 were obtained from Swiss TPH, were used for carrying out the growth inhibition assays. Bloodstream form of T. b. gambiense and T. b. rhodesiense were also grown in HMI-9 media, described above, but the media was supplemented by 5% human serum and 5% heat-inactivated FBS instead of 10% FBS. To” for “To”, “values. Similar assay was also used for determining IC50 against T.b. gambinese STIB930 and T. b. rhodesiense STIB900 strains, but the initial concentration of cells used was 3×10^4 parasites/ml.” for “values.”

[3] = system: Leishmania donovani axenic amastigote; assay: Growth inhibition of Leishmania donovani axenic amastigote; settings: L. donovani growth inhibition, read-out: (d) L.d* IC50
Experimental: Leishmania donovani axenic amastigote parasites are grown at 37° C., 5% CO2 in media made of RPMI 1640, 4 mM L-glutamine, 20% heat inactivated FBS, 100 units/ml of penicillin and 100 μg/ml of streptomycin, 23 μM Folic Acid, 100 μM Adenosine, 22 mM D-glucose, 25 mM MES. The pH of media is adjusted to 5.5 at 37° C. using HCl. 20 μL of media is first dispensed into 384 well plates and 100 nL of the compounds of invention in DMSO are added to the plate wells. At the same time control compounds and DMSO are added to plates to serve as the positive and negative controls, respectively. 40 μL of parasite culture (9600 parasites) are then added to the plate wells. The plates are then placed into incubators. After 2 day incubation, 20 μL of Cell TiterGlo (Promega) is added to the plate wells. The luminescence signal of each well is measured using the Envision reader (Perkin Elmer). The percentage inhibition of 50%, EC50, is calculated for each of the compounds.

SMILES | IC50 [1] | IC50 [2] | IC50 (T.b. gambinese STIB930) | IC50 [3]
N#Cc1ncn(CC(=O)N2Cc3ccc(-c4ccc(F)nc4C(F)(F)F)cc3C2)n1 [Example 26, 1-(2-(5-(6-fluoro-2-(trifluoromethyl)pyridin-3-yl)isoindolin-2-yl)-2-oxoethyl)-1H-1,2,4-triazole-3-carbonitrile] | 100 to 1000 nM | < 100 nM |  | 
N#Cc1ncn(CC(=O)N2Cc3ccc(-c4ccncc4C(F)(F)F)cc3C2)n1 [Example 27, 1-(2-oxo-2-(5-(3-(trifluoromethyl)pyridin-4-yl)isoindolin-2-yl)ethyl)-1H-1,2,4-triazole-3-carbonitrile] | < 100 nM | < 100 nM | < 100 nM | 
N#Cc1ncn(CC(=O)N2Cc3ccc(-c4ccc(F)cc4C#N)cc3C2)n1 [Example 32, 1-(2-(5-(2-cyano-4-fluorophenyl)isoindolin-2-yl)-2-oxoethyl)-1H-1,2,4-triazole-3-carbonitrile] | 100 to 1000 nM | < 100 nM |  | ≥ 1000 nM
N#Cc1ncn(CC(=O)N2Cc3ccc(-c4c(Cl)cccc4Cl)cc3C2)n1 [Example 35, 1-(2-(5-(2,6-dichlorophenyl)isoindolin-2-yl)-2-oxoethyl)-1H-1,2,4-triazole-3-carbonitrile] | 100 to 1000 nM | < 100 nM |  | ≥ 1000 nM
N#Cc1ncn(CC(=O)N2Cc3ccc(-c4ccccc4C(F)(F)F)cc3C2)n1 [Example 36, 1-(2-oxo-2-(5-(2-(trifluoromethyl)phenyl)isoindolin-2-yl)ethyl)-1H-1,2,4-triazole-3-carbonitrile] | 100 to 1000 nM | < 100 nM |  | ≥ 1000 nM
COCCOc1cc(F)ccc1-c1ccc2c(c1)CN(C(=O)Cn1cnc(C#N)n1)C2 [Example 39, 1-(2-(5-(4-fluoro-2-(2-methoxyethoxy)phenyl)isoindolin-2-yl)-2-oxoethyl)-1H-1,2,4-triazole-3-carbonitrile] | 100 to 1000 nM | ≥ 1000 nM |  | 
N#Cc1ncn(CC(=O)N2Cc3ccc(-c4ccccc4OC(F)(F)F)cc3C2)n1 [Example 40, 1-(2-oxo-2-(5-(2-(trifluoromethoxy)phenyl)isoindolin-2-yl)ethyl)-1H-1,2,4-triazole-3-carbonitrile] | 100 to 1000 nM | 100 to 1000 nM |  | 
N#Cc1ncn(CC(=O)N2Cc3ccc(-c4ccc(C(F)(F)F)cc4Cl)cc3C2)n1 [Example 42, 1-(2-(5-(2-chloro-4-(trifluoromethyl)phenyl)isoindolin-2-yl)-2-oxoethyl)-1H-1,2,4-triazole-3-carbonitrile] | 100 to 1000 nM | ≥ 1000 nM |  | 
N#Cc1ncn(CC(=O)N2Cc3ccc(-c4ccccc4C#N)cc3C2)n1 [Example 43, 1-(2-(5-(2-cyanophenyl)isoindolin-2-yl)-2-oxoethyl)-1H-1,2,4-triazole-3-carbonitrile] | 100 to 1000 nM | < 100 nM |  | ≥ 1000 nM
N#Cc1ncn(CC(=O)N2Cc3ccc(-c4cccc(C#N)c4F)cc3C2)n1 [Example 44, 1-(2-(5-(3-cyano-2-fluorophenyl)isoindolin-2-yl)-2-oxoethyl)-1H-1,2,4-triazole-3-carbonitrile] | 100 to 1000 nM | 100 to 1000 nM |  | 
N#Cc1ccc(-c2ccc3c(c2)CN(C(=O)Cn2cnc(C#N)n2)C3)cc1 [Example 46, 1-(2-(5-(4-cyanophenyl)isoindolin-2-yl)-2-oxoethyl)-1H-1,2,4-triazole-3-carbonitrile] | 100 to 1000 nM | 100 to 1000 nM |  | ≥ 1000 nM
Cn1nc(C(F)(F)F)cc1-c1ccc2c(c1)CN(C(=O)Cn1cnc(C#N)n1)C2 [Example 48, 1-(2-(5-(1-methyl-3-(trifluoromethyl)-1H-pyrazol-5-yl)isoindolin-2-yl)-2-oxoethyl)-1H-1,2,4-triazole-3-carbonitrile] | 100 to 1000 nM | 100 to 1000 nM |  | 
CC(=O)c1ccccc1-c1ccc2c(c1)CN(C(=O)Cn1cnc(C#N)n1)C2 [Example 50, 1-(2-(5-(2-acetylphenyl)isoindolin-2-yl)-2-oxoethyl)-1H-1,2,4-triazole-3-carbonitrile] | 100 to 1000 nM | 100 to 1000 nM |  | 
COc1cc(F)ccc1-c1ccc2c(c1)CN(C(=O)Cn1cnc(C#N)n1)C2 [Example 51, 1-(2-(5-(4-fluoro-2-methoxyphenyl)isoindolin-2-yl)-2-oxoethyl)-1H-1,2,4-triazole-3-carbonitrile] | 100 to 1000 nM | 100 to 1000 nM |  | 
COc1ccc(Cl)cc1-c1ccc2c(c1)CN(C(=O)Cn1cnc(C#N)n1)C2 [Example 52, 1-(2-(5-(5-chloro-2-methoxyphenyl)isoindolin-2-yl)-2-oxoethyl)-1H-1,2,4-triazole-3-carbonitrile] | 100 to 1000 nM | 100 to 1000 nM |  | 
N#Cc1ncn(CC(=O)N2Cc3ccc(-c4cccc(F)c4C(F)(F)F)cc3C2)n1 [Example 84, 1-(2-(5-(3-fluoro-2-(trifluoromethyl)phenyl)isoindolin-2-yl)-2-oxoethyl)-1H-1,2,4-triazole-3-carbonitrile] | 100 to 1000 nM | < 100 nM |  | 
N#Cc1ncn(CC(=O)N2Cc3ccc(-c4cnccc4C(F)(F)F)cc3C2)n1 [Example 86, 1-(2-oxo-2-(5-(4-(trifluoromethyl)pyridin-3-yl)isoindolin-2-yl)ethyl)-1H-1,2,4-triazole-3-carbonitrile] | 100 to 1000 nM | 100 to 1000 nM |  | 
